Experimental data as given in patent US12252481B2, “Anti-viral compounds” (Aligos Therapeutics, Inc., priority 2021, dated 2025).
Where two headings read alike, the source gives them in different places.

Columns and labels:
SARS-Cov-2 3CLpro = molecular target: T1, SARS-Cov-2 3CLpro (Severe acute respiratory syndrome coronavirus 2, UniProt P0DTD1); assay: biochemical; conditions: 3CLpro, 30 mins preincubation, SAMDI-MS
T1 construct: 3CLpro and HRV3C was added using a Multidrop Combi

HRV3C = molecular target: T2, HRV3C (Human rhinovirus 14, UniProt P03303); assay: biochemical; design: species or system HRV; conditions: HRV3C, 30 mins preincubation, SAMDI-MS; read-out: HRV IC50 (bound)
T2 construct: 3CLpro and HRV3C was added using a Multidrop Combi
T2 sequence (P03303 1538-1719): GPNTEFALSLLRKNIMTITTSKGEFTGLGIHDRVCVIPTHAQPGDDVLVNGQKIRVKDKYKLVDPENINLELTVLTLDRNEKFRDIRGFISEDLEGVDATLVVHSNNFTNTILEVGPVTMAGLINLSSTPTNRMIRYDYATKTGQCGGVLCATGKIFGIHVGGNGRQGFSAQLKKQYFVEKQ

[1] = test system: human beta-coronavirus OC43; assay: OC43 coronavirus antiviral assay in HeLa cells (cytopathic effect, cell-titer-glo); type: cell-based; conditions: Betacoronavirus 1, OC43, HeLa, 144 h, 6 days at 33° C.
[2] = test system: SARS-CoV-2-GHB-03021/2020; type: cell-based; conditions: read-out: VeroE6 + CP (EC50)
[3] = test system: B.1.1.7 lineage SARS-CoV-2; assay: microbe, parasite or virus in culture; type: cell-based
human cathepsin L = molecular target: T3, human cathepsin L (Homo sapiens, UniProt P07711); assay: Cathepsin L assay (Z-FR-AMC fluorescence); type: biochemical; conditions: 10 pM human cathepsin L, 30 mins preincubation, Z-FR-AMC 2 μM
T3 construct: purchased R&D Systems
T3 sequence (P07711 114-333): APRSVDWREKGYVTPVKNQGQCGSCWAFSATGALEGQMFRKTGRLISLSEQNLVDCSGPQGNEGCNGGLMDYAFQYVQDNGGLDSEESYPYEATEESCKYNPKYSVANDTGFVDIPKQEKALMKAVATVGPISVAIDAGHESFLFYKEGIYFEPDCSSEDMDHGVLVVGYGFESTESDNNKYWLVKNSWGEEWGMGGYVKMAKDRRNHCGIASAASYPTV
Experimental: For the cathepsin L assay, 10 pM of human cathepsin L (R&D Systems; Minneapolis, MN) was preincubated for 30 mins with test compounds. Reactions were initiated by the addition of a peptide substrate Z—FR-AMC (final concentration 2 μM, Anaspec; Fremont, CA). Fluorescence was measured at 2-minute intervals for 30 mins using a 355/460 excitation/emission filter module on an Envision plate reader (Perkin Elmer; Waltham, MA). The IC50 values were calculated for each assay by fitting the curves using a four-parameter equation in GraphPad Prism.

[4] = read-out: SARS-Cov-2 IC50 (class)
[5] = Severe acute respiratory syndrome coronavirus 2, 96 h; read-out: A549-dual_ACE2_TMPRSS2 (EC50)
[6] = Severe acute respiratory syndrome coronavirus 2, 96 h; […]; numeric bounds given instead of class symbols; read-out: A549-dual_ACE2_TMPRSS2 (EC50)

| SMILES | IC50 (SARS-Cov-2 3CLpro; [4]) | IC50 (HRV3C) | EC50 ([1]; read-out: EC50 (class)) | EC50 [2] | EC50 [3, 5] | IC50 (human cathepsin L) | EC50 ([1]; read-out: EC50 (bound)) | EC50 [3, 6] | EC50 ([3]; Severe acute respiratory syndrome coronavirus 2, 96 h, read-out: A549-dual_ACE2_TMPRSS2 (EC50)) | IC50 (SARS-Cov-2 3CLpro; read-out: SARS-Cov-2 IC50 (bound)) |
| --- | --- | --- | --- | --- | --- | --- | --- | --- | --- | --- |
| CC(C)(C)[C@H](NC(=O)[C@H]1CCCO1)C(=O)N1C[C@H]2[C@@H]([C@H]1C(=O)N[C@H](C#N)C[C@@H]1CCNC1=O)[C@H]1C=C[C@@H]2C1 [Example 22, (1S,3aR,4S,7R,7aS)-N-((S)-1-cyano-2-((S)-2-oxopyrrolidin-3-yl)ethyl)-2-((S)-3,3-dimethyl-2-((R)-tetrahydrofuran-2-carboxamido)butanoyl)-2,3,3a,4,7,7a-hexahydro-1H-4,7-methanoisoindole-1-carboxamide] | 200 to 2000 nM | > 10000 nM | 1000 to 10000 nM | 1000 to 10000 nM | 1000 to 10000 nM | ≥ 10000 nM | – | – | – | – |
| CC(C)(C)[C@H](NC(=O)C(F)(F)Cl)C(=O)N1C[C@@H]2[C@@H]3CC[C@@H](C3)[C@@H]2[C@H]1C(=O)N[C@H](C#N)C[C@@H]1CCNC1=O [Example 40, (1S,2S,3S,6R,7R)-4-[(2S)-2-(2-chloro-2,2-difluoroacetamido)-3,3-dimethylbutanoyl]-N-[(1S)-1-cyano-2-[(3S)-2-oxopyrrolidin-3-yl]ethyl]-4-azatricyclo[5.2.1.0^{2,6}]decane-3-carboxamide] | < 20 nM | > 10000 nM | < 100 nM | < 100 nM | < 100 nM | ≥ 10000 nM | – | – | – | – |
| CC(C)(C)[C@H](NC(=O)C(F)(F)F)C(=O)N1C[C@H]2[C@@H]([C@H]1C(=O)N[C@H](C#N)C[C@@H]1CCNC1=O)[C@H]1CC[C@@H]2O1 (mixture of isomers) [Compound 58, (1S,3aR,4S,7R,7aS)-N-((S)-1-cyano-2-((S)-2-oxopyrrolidin-3-yl)ethyl)-2-((S)-3,3-dimethyl-2-(2,2,2-trifluoroacetamido)butanoyl)octahydro-1H-4,7-epoxyisoindole-1-carboxamide] | 200 to 2000 nM | > 10000 nM | 1000 to 10000 nM | 1000 to 10000 nM | 1000 to 10000 nM | ≥ 10000 nM | – | – | – | – |
| CC(C)(C)[C@H](OC1CC1)C(=O)N1C[C@H]2[C@@H]([C@H]1C(=O)N[C@H](C#N)C[C@@H]1CCNC1=O)[C@H]1C=C[C@@H]2C1 [Compound 54] | 200 to 2000 nM | > 10000 nM | – | 1000 to 10000 nM | – | ≥ 10000 nM | > 10000 nM | > 10000 nM | – | – |
| CC(C)(C)C(C(=O)N1C[C@H]2[C@@H]([C@H]1C(=O)N[C@H](C#N)C[C@@H]1CCNC1=O)[C@H]1C=C[C@@H]2C1)n1cc(C(F)(F)F)nn1 (stereo partly drawn) [Compound 42, (1S,3aR,4S,7R,7aS)-N-((S)-1-cyano-2-((S)-2-oxopyrrolidin-3-yl)ethyl)-2-(3,3-dimethyl-2-(4-(trifluoromethyl)-1H-1,2,3-triazol-1-yl)butanoyl)-2,3,3a,4,7,7a-hexahydro-1H-4,7-methanoisoindole-1-carboxamide] | 20 to 200 nM | > 10000 nM | 100 to 1000 nM | 100 to 1000 nM | 100 to 1000 nM | ≥ 10000 nM | – | – | – | – |
| N#C[C@H](C[C@@H]1CCNC1=O)NC(=O)[C@@H]1[C@@H]2[C@H](CN1C(=O)[C@@H]1C[C@]13CCc1ccccc13)[C@@H]1C=C[C@H]2C1 (single isomer, unassigned) [Example 38, (1S,3aR,4S,7R,7aS)-N-((S)-1-cyano-2-((S)-2-oxopyrrolidin-3-yl)ethyl)-2-((1R*,2R*)-2′,3′-dihydrospiro[cyclopropane-1,1′-indene]-2-carbonyl)-2,3,3a,4,7,7a-hexahydro-1H-4,7-methanoisoindole-1-carboxamide] | – | – | 1000 to 10000 nM | 100 to 1000 nM | – | ≥ 10000 nM | – | – | 1000 to 10000 nM | – |
| CC(C)(C)[C@H](NC(=O)C(F)(F)F)C(=O)N1C[C@H]2[C@@H]([C@H]1C(=O)N[C@H](C#N)CC1CC3(CC(F)(F)C3)NC1=O)[C@H]1C=C[C@@H]2C1 (mixture of isomers) [Example 83, (1R,2S,3S,6R,7S)—N-[(1S)-1-cyano-2-{2,2-difluoro-6-oxo-5-azaspiro[3.4]octan-7-yl}ethyl]-4-[(2S)-3,3-dimethyl-2-(2,2,2-trifluoroacetamido)butanoyl]-4-azatricyclo[5.2.1.0^{2,6}]dec-8-ene-3-carboxamide] | < 20 nM | > 10000 nM | < 100 nM | – | < 100 nM | ≥ 10000 nM | – | – | – | – |
| COCC(C)(C)[C@H](NC(=O)C(F)(F)C(F)(F)F)C(=O)N1C[C@H]2[C@@H]([C@H]1C(=O)N[C@H](C#N)C[C@@H]1CCNC1=O)[C@H]1C=C[C@@H]2C1 [Compound 100, (1S,3aR,4S,7R,7aS)-N-((S)-1-cyano-2-((S)-2-oxopyrrolidin-3-yl)ethyl)-2-((S)-4-methoxy-3,3-dimethyl-2-(2,2,3,3,3-pentafluoropropanamido)butanoyl)-2,3,3a,4,7,7a-hexahydro-1H-4,7-methanoisoindole-1-carboxamide] | < 20 nM | > 500 nM | < 100 nM | – | < 100 nM | ≥ 10000 nM | – | – | – | – |
| CC(C)(C)[C@H](NC(=O)C(F)(F)C(F)(F)F)C(=O)N1C[C@H]2[C@@H]([C@H]1C(=O)N[C@H](C#N)C[C@@H]1CCNC1=O)[C@H]1C=C[C@@H]2C1(F)F [Compound 129, (1R,2R,3S,6S,7S)—N-[(1S)-1-cyano-2-[(3S)-2-oxopyrrolidin-3-yl]ethyl]-4-[(2S)-3,3-dimethyl-2-(2,2,3,3,3-pentafluoropropanamido)butanoyl]-10,10-difluoro-4-azatricyclo[5.2.1.0^{2,6}]dec-8-ene-3-carboxamide] | < 20 nM | > 500 nM | < 100 nM | – | < 100 nM | ≥ 10000 nM | – | – | – | – |
| COC(C)(C)C(=O)N[C@H](C(=O)N1C[C@H]2[C@@H]([C@H]1C(=O)N[C@H](C#N)C[C@@H]1CCNC1=O)[C@H]1C=C[C@@H]2C1)C(C)(C)C [Compound 77] | 20 to 200 nM | > 10000 nM | 1000 to 10000 nM | – | 100 to 1000 nM | ≥ 10000 nM | – | – | – | – |
| CC(C)(C)[C@H](NC(=O)C(F)(F)F)C(=O)N1C[C@@H]2[C@@H]([C@@H]3CC[C@H]2O3)[C@@H]1C(=O)N[C@H](C#N)C[C@@H]1CCNC1=O (relative stereo) [Compound 58a] | – | > 10000 nM | – | – | – | ≥ 10000 nM | > 10000 nM | > 10000 nM | – | > 10000 nM |
| CC(C)(C)[C@H](NC(=O)C(F)(F)Cl)C(=O)N1C[C@H]2[C@@H]([C@H]1C(=O)N[C@H](C#N)C[C@@H]1CCNC1=O)[C@H]1C=C[C@@H]2C1(F)F [Compound 128, (1R,2R,3S,6S,7S)-4-[(2S)-2-(2-chloro-2,2-difluoroacetamido)-3,3-dimethylbutanoyl]-N-[(1S)-1-cyano-2-[(3S)-2-oxopyrrolidin-3-yl]ethyl]-10,10-difluoro-4-azatricyclo[5.2.1.0^{2,6}]dec-8-ene-3-carboxamide] | < 20 nM | > 500 nM | < 100 nM | – | < 100 nM | ≥ 10000 nM | – | – | – | – |
| CC(C)(C)[C@H](NC(=O)C1(F)CC1)C(=O)N1C[C@@H]2[C@@H]3CC[C@@H](C3)[C@@H]2[C@H]1C(=O)N[C@H](C#N)C[C@@H]1CCNC1=O [Compound 64, (1S,2S,3S,6R,7R)—N-[(1S)-1-cyano-2-[(3S)-2-oxopyrrolidin-3-yl]ethyl]-4-[(2S)-2-[(1-fluorocyclopropyl)formamido]-3,3-dimethylbutanoyl]-4-azatricyclo[5.2.1.0^{2,6}]decane-3-carboxamide] | < 20 nM | > 10000 nM | < 100 nM | – | < 100 nM | ≥ 10000 nM | – | – | – | – |
| CO[C@](C)(C(=O)N[C@H](C(=O)N1C[C@H]2[C@@H]([C@H]1C(=O)N[C@H](C#N)C[C@@H]1CCNC1=O)[C@H]1C=C[C@@H]2C1)C(C)(C)C)C(F)(F)F [Compound 78] | 20 to 200 nM | > 10000 nM | 1000 to 10000 nM | – | 100 to 1000 nM | ≥ 10000 nM | – | – | – | – |
| CC(C)(C)[C@H](NC(=O)C(F)(F)F)C(=O)N1C[C@@H]2[C@H]3CC[C@H](CC3)[C@@H]2[C@H]1C(=O)N[C@H](C#N)C[C@@H]1CCNC1=O (mixture of isomers) [Compound 71] | < 20 nM | > 10000 nM | 100 to 1000 nM | – | < 100 nM | ≥ 10000 nM | – | – | – | – |
| CC(C)(C)[C@H](NC(=O)C(F)(Cl)Cl)C(=O)N1C[C@@H]2[C@@H]3CC[C@@H](C3)[C@@H]2[C@H]1C(=O)N[C@H](C#N)C[C@@H]1CCNC1=O [Compound 67, (1S,2S,3S,6R,7R)—N-[(1S)-1-cyano-2-[(3S)-2-oxopyrrolidin-3-yl]ethyl]-4-[(2S)-2-(2,2-dichloro-2-fluoroacetamido)-3,3-dimethylbutanoyl]-4-azatricyclo[5.2.1.0^{2,6}]decane-3-carboxamide] | < 20 nM | > 10000 nM | < 100 nM | – | < 100 nM | ≥ 10000 nM | – | – | – | – |
